Values joined by “and” are separate entries in the source; they are usually repeats but may differ in a detail not shown here. Equal values may be shown once.
What was measured:
[1] = test system: serum cytokines and chemokines; assay: Serum cytokine and chemokine levels (48-Plex ProcartaPlex, Luminex); assay type: in vivo, 3×Tg-AD mouse; details: 50 mg/kg oral, 9 months
Method: (§1) At study endpoints (age 15 months for sub-chronic study, age 13 months for long-term study), mice were anaesthetized with isoflurane and blood was collected by transcardial puncture. Blood was stored on ice and then centrifuged at 10,000×g at 4° C. for 10 min to collect serum and stored at −80° C. until use. The brain was then extracted and quickly dissected on ice to collect prefrontal cortex (PFC), hippocampus, entorhinal cortex (ERC), and cerebellum, which were immediately frozen in liquid nitrogen. The samples were stored at −80° C. until processed for RNA or protein extraction. For each mouse, brain regions from one hemisphere were used for RNA preparation and qPCR and sections from the other hemisphere were used for protein work including ELISAs.
Human Aβ1-42, Aβ1-40, phosphorylated tau Ser 396, phosphorylated tau Thr181, and total tau were measured in brain tissue by enzyme linked immuno-sorbent assay (ELISA; Invitrogen by Thermo) and normalized to total protein. All the kits were used as per the manufacturer's instructions and measured using the EnVision® multimode plate reader (Perkin Elmer). Serum and brain tissue protein extracts were analyzed for cytokine and chemokine levels using the Immune Monitoring 48-Plex Mouse ProcartaPlex™ Panel (Invitrogen by Thermo) according to manufacturer's standard protocol and read using Luminex xMAP (multi-analyte profiling) technology.

[2] = test system: Human Aβ1-42, Aβ1-40, phosphorylated tau, total tau; assay: ELISA of AD pathological hallmarks in brain tissue; assay type: in vivo, 3×Tg-AD mouse; details: 50 mg/kg oral, 9 months
Method: as §1, with “For each mouse, brain regions from one hemisphere were used for RNA preparation and qPCR and sections from the other hemisphere were used for protein work including ELISAs.” left out
Protein lysates were extracted by sonicating tissue in M-PER Mammalian Protein Extraction Reagent (Thermo Fisher Scientific) supplemented with protease inhibitor (Thermo Fisher Scientific) and phosphatase inhibitor (Thermo Fisher Scientific). Total protein was quantified using Pierce BCA Protein Assay Kit (Thermo Fisher Scientific) and read at 562 nm using EnVision (Perkin Elmer).
Human Aβ1-42, Aβ1-40, phosphorylated tau Ser 396, phosphorylated tau Thr181, and total tau were measured in brain tissue by enzyme linked immuno-sorbent assay (ELISA; Invitrogen by Thermo) and normalized to total protein. All the kits were used as per the manufacturer's instructions and measured using the EnVision® multimode plate reader (Perkin Elmer). […]

In the case of `Oc1ccc(/C=C/c2cc(O)cc(O)c2)cc1` [RSV, (trans-)resveratrol], the “BAFF serum level, change vs vehicle” value ([1]; female 3×Tg-AD mice) is reported as 22.01 pg/mL, the “G-CSF serum level, change vs vehicle” value ([1]; female 3×Tg-AD mice) is reported as -0.68 pg/mL and the “IFNg serum level, change vs vehicle” value ([1]; female 3×Tg-AD mice) is reported as 1.06 pg/mL. For the same compound, the “IL-1b serum level, change vs vehicle” value ([1]; female 3×Tg-AD mice) was 0.80 pg/mL, the “IL-2RA serum level, change vs vehicle” value ([1]; female 3×Tg-AD mice) was -71.13 pg/mL and the “IL-3 serum level, change vs vehicle” value ([1]; female 3×Tg-AD mice) was 0.15 pg/mL. For the same compound, the “IL-5 serum level, change vs vehicle” value ([1]; female 3×Tg-AD mice) was 0.05 pg/mL, the “IL-6 serum level, change vs vehicle” value ([1]; female 3×Tg-AD mice) was -10.05 pg/mL and the “IL-9 serum level, change vs vehicle” value ([1]; female 3×Tg-AD mice) was 13.83 pg/mL. The “IL-10 serum level, change vs vehicle” value ([1]; female 3×Tg-AD mice) was -8.54 pg/mL, the “IL-12p70 serum level, change vs vehicle” value ([1]; female 3×Tg-AD mice) was 0.15 pg/mL and the “IL-13 serum level, change vs vehicle” value ([1]; female 3×Tg-AD mice) was 15.44 pg/mL. The “IL-15/IL-15R serum level, change vs vehicle” value ([1]; female 3×Tg-AD mice) was 0.51 pg/mL, the “IL-17A serum level, change vs vehicle” value ([1]; female 3×Tg-AD mice) was -5.14 pg/mL and the “IL-18 serum level, change vs vehicle” value ([1]; female 3×Tg-AD mice) was -74.10 pg/mL. For the same compound, the “IL-19 serum level, change vs vehicle” value ([1]; female 3×Tg-AD mice) was -17.31 pg/mL, the “IL-22 serum level, change vs vehicle” value ([1]; female 3×Tg-AD mice) was -2.84 pg/mL and the “IL-23 serum level, change vs vehicle” value ([1]; female 3×Tg-AD mice) was 16.41 pg/mL. For the same compound, the “IL-25/IL-17 serum level, change vs vehicle” value ([1]; female 3×Tg-AD mice) was -12.62 pg/mL, the “IL-27 serum level, change vs vehicle” value ([1]; female 3×Tg-AD mice) was 0.92 pg/mL and the “IL-28 serum level, change vs vehicle” value ([1]; female 3×Tg-AD mice) was 5.70 pg/mL. For the same compound, the “IL-33 serum level, change vs vehicle” value ([1]; female 3×Tg-AD mice) was -4.36 pg/mL, the “IP-10 serum level, change vs vehicle” value ([1]; female 3×Tg-AD mice) was -9.75 pg/mL and the “KC serum level, change vs vehicle” value ([1]; female 3×Tg-AD mice) was -41.09 pg/mL. The “LIF serum level, change vs vehicle” value ([1]; female 3×Tg-AD mice) was -1.86 pg/mL, the “LIX serum level, change vs vehicle” value ([1]; female 3×Tg-AD mice) was 1701.00 pg/mL and the “MCP-1 serum level, change vs vehicle” value ([1]; female 3×Tg-AD mice) was -43.64 pg/mL. For the same compound, the “MCP-3 serum level, change vs vehicle” value ([1]; female 3×Tg-AD mice) was -212.20 pg/mL, the “MIP-1a serum level, change vs vehicle” value ([1]; female 3×Tg-AD mice) was 3.71 pg/mL and the “MIP-1b serum level, change vs vehicle” value ([1]; female 3×Tg-AD mice) was 0.17 pg/mL. The “MIP-2 serum level, change vs vehicle” value ([1]; female 3×Tg-AD mice) was -7.86 pg/mL, the “RANTES serum level, change vs vehicle” value ([1]; female 3×Tg-AD mice) was -9.09 pg/mL and the “TNFa serum level, change vs vehicle” value ([1]; female 3×Tg-AD mice) was -2.67 pg/mL. The “sRANKL serum level, change vs vehicle” value ([1]; female 3×Tg-AD mice) was -0.58 pg/mL, the “Eotaxin serum level, change vs vehicle” value ([1]; female 3×Tg-AD mice, 50 mg/kg) was -3162 ± 1165 pg/mL and -3162.00 pg/mL and the “Leptin serum level, change vs vehicle” value ([1]; female 3×Tg-AD mice, 50 mg/kg) was -33707 ± 9226 pg/mL and -33707.0 pg/mL. The “BAFF serum level, change vs vehicle” value ([1]; male 3×Tg-AD mice) was -44.06 pg/mL, the “Eotaxin serum level, change vs vehicle” value ([1]; male 3×Tg-AD mice) was 943.10 pg/mL and the “G-CSF serum level, change vs vehicle” value ([1]; male 3×Tg-AD mice) was -5.14 pg/mL. For the same compound, the “IFNg serum level, change vs vehicle” value ([1]; male 3×Tg-AD mice) was -0.66 pg/mL, the “IL-1b serum level, change vs vehicle” value ([1]; male 3×Tg-AD mice) was -5.86 pg/mL and the “IL-2RA serum level, change vs vehicle” value ([1]; male 3×Tg-AD mice) was -21.16 pg/mL. The “IL-5 serum level, change vs vehicle” value ([1]; male 3×Tg-AD mice) was 8.72 pg/mL, the “IL-6 serum level, change vs vehicle” value ([1]; male 3×Tg-AD mice) was -60.32 pg/mL and the “IL-9 serum level, change vs vehicle” value ([1]; male 3×Tg-AD mice) was -9.66 pg/mL. The “IL-10 serum level, change vs vehicle” value ([1]; male 3×Tg-AD mice) was 2.25 pg/mL, the “IL-12p70 serum level, change vs vehicle” value ([1]; male 3×Tg-AD mice) was -13.72 pg/mL and the “IL-13 serum level, change vs vehicle” value ([1]; male 3×Tg-AD mice) was -72.28 pg/mL. For the same compound, the “IL-15/IL-15R serum level, change vs vehicle” value ([1]; male 3×Tg-AD mice) was -11.93 pg/mL, the “IL-17A serum level, change vs vehicle” value ([1]; male 3×Tg-AD mice) was -6.64 pg/mL and the “IL-18 serum level, change vs vehicle” value ([1]; male 3×Tg-AD mice) was -415.10 pg/mL. The “IL-19 serum level, change vs vehicle” value ([1]; male 3×Tg-AD mice) was -23.06 pg/mL, the “IL-23 serum level, change vs vehicle” value ([1]; male 3×Tg-AD mice) was -12.74 pg/mL and the “IL-25/IL-17 serum level, change vs vehicle” value ([1]; male 3×Tg-AD mice) was -235.80 pg/mL. The “IL-28 serum level, change vs vehicle” value ([1]; male 3×Tg-AD mice) was -44.41 pg/mL, the “IL-33 serum level, change vs vehicle” value ([1]; male 3×Tg-AD mice) was 107.60 pg/mL and the “IP-10 serum level, change vs vehicle” value ([1]; male 3×Tg-AD mice) was -47.95 pg/mL. For the same compound, the “KC serum level, change vs vehicle” value ([1]; male 3×Tg-AD mice) was -90.17 pg/mL, the “LIF serum level, change vs vehicle” value ([1]; male 3×Tg-AD mice) was -8.06 pg/mL and the “LIX serum level, change vs vehicle” value ([1]; male 3×Tg-AD mice) was -6715.00 pg/mL. The “Leptin serum level, change vs vehicle” value ([1]; male 3×Tg-AD mice) was -1768.00 pg/mL, the “MIP-1a serum level, change vs vehicle” value ([1]; male 3×Tg-AD mice) was 4.01 pg/mL and the “MIP-1b serum level, change vs vehicle” value ([1]; male 3×Tg-AD mice) was -6.40 pg/mL. The “RANTES serum level, change vs vehicle” value ([1]; male 3×Tg-AD mice) was -24.75 pg/mL, the “TNFa serum level, change vs vehicle” value ([1]; male 3×Tg-AD mice) was -0.08 pg/mL and the “VEGF-A serum level, change vs vehicle” value ([1]; male 3×Tg-AD mice) was -17.68 pg/mL. For the same compound, the “sRANKL serum level, change vs vehicle” value ([1]; male 3×Tg-AD mice) was 4.06 pg/mL, the “IL-3 serum level, change vs vehicle” value ([1]; male 3×Tg-AD mice, 50 mg/kg) was -1.53 ± 0.26 pg/mL and -1.53 pg/mL and the “IL-22 serum level, change vs vehicle” value ([1]; male 3×Tg-AD mice, 50 mg/kg) was -23.37 ± 5.2 pg/mL and -23.37 pg/mL. The “MIP-2 serum level, change vs vehicle” value ([1]; male 3×Tg-AD mice, 50 mg/kg) was -16.16 ± 5.95 pg/mL and -16.16 pg/mL, the “Phospho-tau at Ser396 in PFC, RSV-treated vs vehicle” value ([2]; male 3×Tg-AD mice) was “significantly different” and the “Total tau in hippocampus, decrease vs vehicle” value ([2]; males and females analyzed together) was 170.5±44.83.
